# Data published in US10111890B2, “9-aminomethyl minocycline compounds and uses thereof” (Paratek Pharmaceuticals, Inc., priority 2016, dated 2018).
# Where “and” joins values, the source holds several entries; their conditions need not be identical. Equal values may be shown once. Read-outs that look alike come from different tables or passages of the source.
# Legend:
# [1] = Phase 1 food-effect crossover study: plasma PK after single 300 mg oral dose; assay type: in vivo, human; settings: for AUC(0-inf) / AUC(0-t) / Cmax / Tmax: plasma, po, 300 mg
# Experimental: These meals were to be consumed within 20 minutes. Dose administration for Treatments B, C, and D was based off of the end time of the meal. […] Geometric means were determined for AUC and Cmax. PK parameters were evaluated using non-compartmental analysis using Phoenix® WinNonlin® (Pharsight Corp, St. Louis, Mo.), Version 6.2.1. Confidence intervals (CI) for test treatments (fed states: Treatments B, C, and D) compared with the reference treatment (fasted state: Treatment A) were constructed for AUC0-24, AUC0-t, AUC0-inf, and Cmax.
# [2] = Prior Phase 1 studies: bioavailability / bioequivalence of oral tablet formulation; parameters: species or system human; settings: in vivo; for bioavailability: human
# [3] = tested on: ABSSSI known or suspected to be due to Gram-positive pathogens; assay: Phase 3 oral omadacycline vs oral linezolid in ABSSSI: Early Clinical Response 48-72 hours after first dose; assay type: in vivo, human
# [4] = 48-72 hours after first dose, mITT population
# [5] = Cellulitis/erysipelas, actual type, 48-72 hours, mITT
# [6] = Cellulitis/erysipelas, as randomized, 48-72 hours, mITT
# [7] = Major Abscess, actual type, 48-72 hours, mITT
compound,measurement,setting,value
"CN(C)c1cc(CNCC(C)(C)C)c(O)c2c1C[C@H]1C[C@H]3[C@H](N(C)C)C(O)=C(C(N)=O)C(=O)[C@@]3(O)C(O)=C1C2=O [Omadacycline, 9-[(2,2-dimethyl-propylamino)-methyl]-minocycline]","AUC0-24, Mean (Coefficient of Variation)",[1]; Treatment A: fasted overnight,7.2 (28.1) mcg * h/mL
same,"AUC0-t, Mean (Coefficient of Variation)",[1]; Treatment A: fasted overnight,7.2 (28.1) mcg * h/mL
same,half-life,"[1]; human, in vivo, across all treatment periods, read-out: mean T1/2",13.5 to 13.8 h
same,AUC(0-inf),"[1]; human, Treatment A: fasted overnight (N = 30), read-out: AUC0-inf, Geometric LS Mean",10600 ng·h/mL
same,AUC(0-t),"[1]; human, Treatment A: fasted overnight, read-out: AUC0-24, Geometric LS Mean",7400 ng·h/mL
same,AUC(0-t),"[1]; human, Treatment A: fasted overnight, read-out: AUC0-24, Mean (Coefficient of Variation)",7200 ng·h/mL
same,AUC(0-inf),"[1]; human, Treatment A: fasted overnight, read-out: AUC0-inf, Mean (Coefficient of Variation)",10200 ng·h/mL
same,AUC(0-t),"[1]; human, Treatment A: fasted overnight, read-out: AUC0-t, Geometric LS Mean",7400 ng·h/mL
same,AUC(0-t),"[1]; human, Treatment A: fasted overnight, read-out: AUC0-t, Mean (Coefficient of Variation)",7200 ng·h/mL
same,Cmax,"[1]; human, Treatment A: fasted overnight, read-out: Cmax, Geometric LS Mean",660 ng/mL
same,Cmax,"[1]; human, Treatment A: fasted overnight, read-out: Cmax, Mean (Coefficient of Variation)",600 ng/mL
same,Tmax,"[1]; human, Treatment A: fasted overnight, read-out: Tmax",2.5 h
same,AUC(0-t),"[1]; human, Treatment B: high-fat nondairy meal 4 h before dosing, read-out: AUC0-24, Geometric LS Mean",6200 ng·h/mL
same,AUC(0-t),"[1]; human, Treatment B: high-fat nondairy meal 4 h before dosing, read-out: AUC0-24, Mean (Coefficient of Variation)",6100 ng·h/mL
same,AUC(0-inf),"[1]; human, Treatment B: high-fat nondairy meal 4 h before dosing, read-out: AUC0-inf, Geometric LS Mean",9000 ng·h/mL
same,AUC(0-inf),"[1]; human, Treatment B: high-fat nondairy meal 4 h before dosing, read-out: AUC0-inf, Mean (Coefficient of Variation)",8800 ng·h/mL
same,AUC(0-t),"[1]; human, Treatment B: high-fat nondairy meal 4 h before dosing, read-out: AUC0-t, Geometric LS Mean",6200 ng·h/mL
same,AUC(0-t),"[1]; human, Treatment B: high-fat nondairy meal 4 h before dosing, read-out: AUC0-t, Mean (Coefficient of Variation)",6100 ng·h/mL
same,Cmax,"[1]; human, Treatment B: high-fat nondairy meal 4 h before dosing, read-out: Cmax, Geometric LS Mean",560 ng/mL
same,Cmax,"[1]; human, Treatment B: high-fat nondairy meal 4 h before dosing, read-out: Cmax, Mean (Coefficient of Variation)",600 ng/mL
same,Tmax,"[1]; human, Treatment B: high-fat nondairy meal 4 h before dosing, read-out: Tmax",2.9 h
same,AUC(0-t),"[1]; human, Treatment C: high-fat nondairy meal 2 h before dosing, read-out: AUC0-24, Geometric LS Mean",4300 ng·h/mL
same,AUC(0-t),"[1]; human, Treatment C: high-fat nondairy meal 2 h before dosing, read-out: AUC0-24, Mean (Coefficient of Variation)",4200 ng·h/mL
same,AUC(0-inf),"[1]; human, Treatment C: high-fat nondairy meal 2 h before dosing, read-out: AUC0-inf, Geometric LS Mean",6200 ng·h/mL
same,AUC(0-inf),"[1]; human, Treatment C: high-fat nondairy meal 2 h before dosing, read-out: AUC0-inf, Mean (Coefficient of Variation)",6000 ng·h/mL
same,AUC(0-t),"[1]; human, Treatment C: high-fat nondairy meal 2 h before dosing, read-out: AUC0-t, Geometric LS Mean",4300 ng·h/mL
same,AUC(0-t),"[1]; human, Treatment C: high-fat nondairy meal 2 h before dosing, read-out: AUC0-t, Mean (Coefficient of Variation)",4200 ng·h/mL
same,Cmax,"[1]; human, Treatment C: high-fat nondairy meal 2 h before dosing, read-out: Cmax, Geometric LS Mean",390 ng/mL
same,Cmax,"[1]; human, Treatment C: high-fat nondairy meal 2 h before dosing, read-out: Cmax, Mean (Coefficient of Variation)",400 ng/mL
same,Tmax,"[1]; human, Treatment C: high-fat nondairy meal 2 h before dosing, read-out: Tmax",2.9 h
same,AUC(0-t),"[1]; human, Treatment D: high-fat meal incl. dairy 2 h before dosing, read-out: AUC0-24, Geometric LS Mean",2800 ng·h/mL
same,AUC(0-t),"[1]; human, Treatment D: high-fat meal incl. dairy 2 h before dosing, read-out: AUC0-24, Mean (Coefficient of Variation)",2800 ng·h/mL
same,AUC(0-inf),"[1]; human, Treatment D: high-fat meal incl. dairy 2 h before dosing, read-out: AUC0-inf, Geometric LS Mean",4000 ng·h/mL
same,AUC(0-inf),"[1]; human, Treatment D: high-fat meal incl. dairy 2 h before dosing, read-out: AUC0-inf, Mean (Coefficient of Variation)",4000 ng·h/mL
same,AUC(0-t),"[1]; human, Treatment D: high-fat meal incl. dairy 2 h before dosing, read-out: AUC0-t, Geometric LS Mean",2800 ng·h/mL
same,AUC(0-t),"[1]; human, Treatment D: high-fat meal incl. dairy 2 h before dosing, read-out: AUC0-t, Mean (Coefficient of Variation)",2800 ng·h/mL
same,Cmax,"[1]; human, Treatment D: high-fat meal incl. dairy 2 h before dosing, read-out: Cmax, Geometric LS Mean",270 ng/mL
same,Cmax,"[1]; human, Treatment D: high-fat meal incl. dairy 2 h before dosing, read-out: Cmax, Mean (Coefficient of Variation)",300 ng/mL
same,Tmax,"[1]; human, Treatment D: high-fat meal incl. dairy 2 h before dosing, read-out: Tmax",2.9 h
same,Tmax,"[1]; human, across all treatment periods, read-out: median Tmax",2.5 to 2.9 h
same,bioavailability,[2],35%
same,bioavailability,"[2]; phase 3 tablet formulation (tosylate salt), fasting conditions, read-out: absolute bioavailability",34.5%
same,bioequivalence of oral and i.v. dose (based on serum AUC),[2],bioequivalent
same,"Difference (95% CI) in Early Clinical Success rate, omadacycline minus linezolid",[3]; [4],"5.0% and 5.0 (−0.2, 10.3) %"
same,Early Clinical Response: Clinical Failure,[3]; [4],26 (7.2) n (%)
same,Early Clinical Response: Clinical Failure or Indeterminate,[3]; [4],45 (12.5) n (%)
same,Early Clinical Response: Indeterminate,[3]; [4],19 (5.3) n (%)
same,Early Clinical Response: Clinical Success,"[3]; 48-72 hours after first dose, mITT population (N = 360 per arm)",315 (87.5) n (%)
same,Early Clinical Response: Clinical Success,"[3]; Cellulitis/erysipelas, actual type of infection, 48-72 hours, mITT",68 (79.1) n (%)
same,Early Clinical Response: Clinical Failure,[3]; [5],8 (9.3) n (%)
same,Early Clinical Response: Clinical Failure or Indeterminate,[3]; [5],18 (20.9) n (%)
same,Early Clinical Response: Indeterminate,[3]; [5],10 (11.6) n (%)
same,Early Clinical Response: Clinical Failure,[3]; [6],8 (9.8) n (%)
same,Early Clinical Response: Clinical Failure or Indeterminate,[3]; [6],17 (20.7) n (%)
same,Early Clinical Response: Indeterminate,[3]; [6],9 (11.0) n (%)
same,Early Clinical Response: Clinical Success,"[3]; Cellulitis/erysipelas, type of infection as randomized, 48-72 hours, mITT",65 (79.3) n (%)
same,Early Clinical Response: Clinical Success,"[3]; Major Abscess, actual type of infection, 48-72 hours, mITT",60 (93.8) n (%)
same,Early Clinical Response: Clinical Failure,[3]; [7],1 (1.6) n (%)
same,Early Clinical Response: Clinical Failure or Indeterminate,[3]; [7],4 (6.3) n (%)
same,Early Clinical Response: Indeterminate,[3]; [7],3 (4.7) n (%)
